In patent publication US20110144056A1, “PYRAZOLE DERIVATIVES USEFUL AS INHIBITORS OF FAAH” (priority 2008, published 2011):

Columns and labels:
FAAH [1] = biological target: T1, FAAH (Homo sapiens, UniProt O00519); test: FAAH enzyme assay, lysate of CHO cells expressing human FAAH; assay type: biochemical; details: CHO cell lysate, read-out: Human Lysate
T1 construct: The full length FAAH was subcloned into the mammalian expression vector, pcDEF.neo; expressed in transfected cells; cDNA from Origene
T1 sequence (O00519 1-579): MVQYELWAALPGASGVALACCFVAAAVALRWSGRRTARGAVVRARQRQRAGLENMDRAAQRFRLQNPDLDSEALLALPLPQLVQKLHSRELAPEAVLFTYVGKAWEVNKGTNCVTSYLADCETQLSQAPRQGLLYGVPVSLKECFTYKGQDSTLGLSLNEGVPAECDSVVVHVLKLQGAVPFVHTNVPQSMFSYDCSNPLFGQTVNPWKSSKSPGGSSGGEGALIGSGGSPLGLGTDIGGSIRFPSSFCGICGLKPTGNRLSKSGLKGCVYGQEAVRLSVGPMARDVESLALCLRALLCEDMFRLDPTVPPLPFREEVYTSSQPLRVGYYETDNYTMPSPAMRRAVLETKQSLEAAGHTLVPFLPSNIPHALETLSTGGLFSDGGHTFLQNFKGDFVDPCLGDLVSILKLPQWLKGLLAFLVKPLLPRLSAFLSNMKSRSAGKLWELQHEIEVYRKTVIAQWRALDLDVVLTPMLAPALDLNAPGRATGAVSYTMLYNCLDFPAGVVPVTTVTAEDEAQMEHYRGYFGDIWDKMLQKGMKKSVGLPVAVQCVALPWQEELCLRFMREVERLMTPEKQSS
Excerpt: (§1) To assist in assay development stable cell lines for human, murine and rat full length FAAH were developed. Human FAAH cDNA (Accession No: NM_001441.1) was purchased from Origene (Rockville, Md.). The full length FAAH was subcloned into the mammalian expression vector, pcDEF.neo, using XbaI and […] restriction sites and used for stable cell line generation.
CHO cells expressing FAAH were used to prepare either crude cell lysate or microsome fractions. To harvest cells, tissue culture media was decanted, the monolayer washed three times with Ca^++Mg^++ free PBS and cells recovered after 15 min in enzyme free dissociation media (Millipore Corp, Billerica, Mass.). Cells were collected by centrifuging at 2000 rpm for 15 min. and the cell pellet re-suspended with 50 mM HEPES (pH 7.4) containing 1 mM EDTA and the protease inhibitors aprotinin (1 mg/ml) and leupeptin (100 μM). The suspension was sonicated at 4° C. and the cell lysate recovered after centrifuging at 12,000×g (14,600 rpm, SS34 rotor) for 20 min at 4° C. to form a crude pellet of cell debris, nuclei, peroxisomes, lysosomes, and mitochondria; the supernatant or cell lysate was used for FAAH enzyme assay. In some cases, microsomes fractions enriched in FAAH were prepared by centrifuging the cell lysate further at 27,000 rpm (100,000×g) in SW28 rotor for 50 minutes at 4° C. The pellet containing FAAH-enriched microsomes was re-suspend in 50 mM HEPES, (pH 7.4) 1 mM EDTA, and any remaining DNA sheared by passage of material through a 23 gauge needle and aliquots of enzyme were store at −80° C. prior to use.
(American Radiolabeled Chemicals; 1 mCi/ml) with FAAH (Life Sciences (1995), 56, 1999-2005 and Journal of Pharmacology and Experimented Therapeutics (1997), 283, 729-734), Analytical. Biochemistry (2003), 318, 270-5. In addition, routine assays were performed monitoring hydrolysis of arachidonyl-7-amino-4-methylcoumarin amide (AAMCA) by following increase in fluorescence upon release of 7-amino 4-methyl coumarin (λEX=355 nm, (λEM=460 nm). Analytical. Biochemistry (2005). 343, 143-51.
(§2) Assays are performed on either cell lysate or microsome fractions prepared as described or in whole cell format employing either the fluorescent substrate AAMCA (Cayman chemical, Ann Arbor, Mich.,) or ^3H-anandmaide ([ETHANOLAMINE-1-3H]American Radiolabeled Chemicals; 1 mCi/ml). The cell lysate or microsome assay is performed in Costar black wall, clear bottom plates by adding FAAH_CHO (whole cell, cell lysate or microsome) in assay buffer (50 mM Phosphate, pH 8.0, 1 mM EDTA, 200 mM KCl, 0.2% glycerol, 0.1% fatty acid free BSA) to each well, followed by either DMSO or compound and allowed to incubate at 22-25° C. for fifteen minutes. AAMCA substrate was used to achieve a final concentration of 1 μM and reaction allowed to proceed at room temperature for 1-3 hours. Fluorescent release as a measure of FAAH activity was monitored by reading the plate in a CytoFluor Multiplate Reader ([…]). Whole cell assay is conducted with cells harvested after rinsing tissue culture flasks three times with Ca^++Mg^++ free PBS, incubating for 10 mm in Enzyme free dissociation media and centrifuging for 5 minutes at 1,000 rpm in table top centrifuge. Cells are resuspended in assay buffer at desired cell number in (4×10^4 cells/assay in 96-well format; 1×10^4 cells/assay in 384-well format) and assayed as described.
Alternatively, assays are performed using anandamide [ethanolamine 1-^3H] (specific activity of 10 Ci/mmol) diluted with cold anandamide to achieve a final assay concentration of 1 μM anandamide (˜50,000 cpm). Enzyme (CHO cell lysate, brain or liver homogenate) is incubated in assay buffer (50 mM Phosphate, pH 8.0, 1 mM EDTA, 200 mM KCl, 0.2% glycerol, 0.1% fatty acid free BSA) with inhibitor at 25° C. for 30 minutes. The reaction was terminated by addition of 2 volumes of chloroform:methanol (1:1) and mixed by vortexing. […]

FAAH [2] = biological target: T1, FAAH; test: FAAH whole cell assay, CHO cells expressing human FAAH; assay type: cell-based; details: read-out: Human whole cell
Excerpt: as §1
(§3) Murine (accession number NM_010173) and Rat FAAH (accession number NM_024132) was amplified by reverse transcriptase polymerase chain reaction (RT-PCR) from brain cDNA (BD Biosciences, San Jose, Calif.) using primers 1 and 2 or primers 1 and 3 respectively (see Table). The resulting PCR product was ligated into pCR4TOPO and DNA sequence confirmed. The full length murine FAAH was subcloned into the mammalian expression vector, pcDEFneo using either EcoRI (murine) or KpnI and EcoRI (rat) restriction sites. Chinese hamster ovary cells (CHO) were transfected following manufacturers protocol (AMAXA). Forty eight hours post transfection, cells were trypsinized and transferred to 96 well plates in Iscove's DMEM media supplemented with 2 mM Glutamine, 10% fetal calf serum, 1 mg/ml geneticin and HT Supplement (0.1 mM sodium hypoxanthine, 0.016 mM thymidine) in order to isolate single clones. Following selection in geneticin, individual clones were selected and FAAH activity was assessed using a whole cell fluorescent anandamide assay, modified from Ramarao et al (2005). Following removal of tissue culture media cells were dislodged following addition of Cellstripper (Mediatech, Inc. Manassas, Va.) and transferred to 96 well black clear bottom assay plate, centrifuged at 1,000 rpm for 3 mins and media removed and replaced with assay buffer (50 mM Tris pH8.0, 1 mM EDTA, 0.1% fatty acid free BSA). The reaction was initiated by addition of fluorescent substrate, AMC Arachidonoyl Amide (Cayman Chemical, Ann Arbor, Mich.) to 1 μM and reaction allowed to proceed for 2 hours at room temperature. Release of fluorescence was monitored in a CytoFluor Multiplate Reader. Cells expressing the highest amount of FAAH activity were selected for study with FAAH inhibitors.
as §2

FAAH [3] = biological target: T2, FAAH (Rattus norvegicus, UniProt P97612); test: FAAH whole cell assay, CHO cells expressing rat FAAH; assay type: cell-based
T2 construct: expressed in transfected cells; cDNA by RT-PCR from brain cDNA (BD Biosciences)
T2 sequence (P97612 1-579): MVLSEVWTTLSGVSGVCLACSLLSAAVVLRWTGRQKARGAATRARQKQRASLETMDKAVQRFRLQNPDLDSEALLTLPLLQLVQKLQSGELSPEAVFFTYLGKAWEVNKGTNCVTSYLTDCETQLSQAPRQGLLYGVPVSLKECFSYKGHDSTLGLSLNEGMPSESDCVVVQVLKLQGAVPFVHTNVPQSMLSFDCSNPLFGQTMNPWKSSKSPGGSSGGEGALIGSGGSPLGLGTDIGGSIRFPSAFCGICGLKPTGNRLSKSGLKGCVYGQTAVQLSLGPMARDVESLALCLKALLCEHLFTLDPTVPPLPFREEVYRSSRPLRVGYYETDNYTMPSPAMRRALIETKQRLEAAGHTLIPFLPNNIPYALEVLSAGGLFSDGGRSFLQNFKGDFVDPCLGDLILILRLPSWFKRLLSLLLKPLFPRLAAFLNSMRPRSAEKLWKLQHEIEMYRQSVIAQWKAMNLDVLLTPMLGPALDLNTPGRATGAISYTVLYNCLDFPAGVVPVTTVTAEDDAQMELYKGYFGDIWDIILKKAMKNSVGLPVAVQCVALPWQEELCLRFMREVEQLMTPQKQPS
Excerpt: as §3, §2

Compound	IC50 (FAAH [1])	IC50 (FAAH [2])	IC50 (FAAH [3])
CS(=O)(=O)c1ccc(-c2c(Sc3ccc(Cl)cc3)cnn2-c2ccc(F)cc2)cc1 [Ex 25, 4-[(4-Chlorophenyl)thio]-2-(4-fluorophenyl)-3-[4-(methylsulfonyl)phenyl]-1H-pyrazole]	271 nM	235 nM	294 nM
[O-][n+]1cccc(-n2cc(Sc3ccc(Cl)cc3)c(-c3ccc(-c4ncon4)cc3)n2)c1 [Example 75]	101 nM	590 nM	137 nM
Clc1ccc(Sc2cn(-c3ccccc3)nc2-c2ccc(-c3c[nH]nn3)cc2)cc1 [Example 88, 4-(4-{4-[(4-Chlorophenyl)thio]-1-phenyl-1H-pyrazol-3-yl}phenyl)-1H-1,2,3-triazole]	121 nM	395 nM	157 nM
O=C(NCCCl)c1ccc(-c2nn(-c3ccccc3)cc2Sc2ccc(Cl)cc2)cc1 [Example 121, N-(2-Chloroethyl)-4-{4-[(4-chlorophenyl)thio]-1-phenyl-1H-pyrazol-3-yl}benzamide]	80 nM	124 nM	52 nM
CC(C)(O)c1cnc(-c2nn(-c3ccc(F)cn3)cc2Sc2ccc(Cl)cc2)cn1 [Example 229, 2-{5-[4-[(4-Chlorophenyl)thio]-1-(5-fluoropyridin-2-yl)-1H-pyrazol-3-yl}pyrazin-2-yl]propan-2-ol]	26 nM	66 nM	18 nM
